Results: ChEMBL document CHEMBL1137849, “Rational design of 6-methylsulfonylindoles as selective cyclooxygenase-2 inhibitors” (Bioorg Med Chem Lett, 2004)

Key:
[1] = target: T1, Prostaglandin G/H synthase 2 (Homo sapiens, UniProt P35354); assay: In vitro inhibitory concentration against Prostaglandin G/H synthase 2 enzyme activity
T1 sequence (P35354 whole entry): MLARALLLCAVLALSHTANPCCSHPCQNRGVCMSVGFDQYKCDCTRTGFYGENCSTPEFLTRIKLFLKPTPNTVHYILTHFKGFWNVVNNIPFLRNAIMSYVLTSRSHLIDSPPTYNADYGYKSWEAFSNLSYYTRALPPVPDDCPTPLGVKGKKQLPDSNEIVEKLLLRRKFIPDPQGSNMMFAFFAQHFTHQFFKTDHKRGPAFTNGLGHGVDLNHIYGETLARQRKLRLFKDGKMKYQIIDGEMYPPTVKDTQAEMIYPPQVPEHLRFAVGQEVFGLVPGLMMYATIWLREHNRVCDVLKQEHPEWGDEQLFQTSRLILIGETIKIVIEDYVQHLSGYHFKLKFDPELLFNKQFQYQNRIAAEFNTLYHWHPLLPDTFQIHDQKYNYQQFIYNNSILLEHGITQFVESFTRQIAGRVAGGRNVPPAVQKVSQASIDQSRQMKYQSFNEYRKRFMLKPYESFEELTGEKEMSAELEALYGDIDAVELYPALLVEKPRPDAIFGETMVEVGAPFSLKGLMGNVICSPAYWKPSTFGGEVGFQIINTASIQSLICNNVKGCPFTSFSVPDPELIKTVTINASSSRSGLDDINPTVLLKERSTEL

[2] = target: T2, Prostaglandin G/H synthase 1 (Homo sapiens, UniProt P23219); assay: Inhibitory concentration against human whole blood Prostaglandin G/H synthase 1 enzyme activity
T2 sequence (P23219 whole entry): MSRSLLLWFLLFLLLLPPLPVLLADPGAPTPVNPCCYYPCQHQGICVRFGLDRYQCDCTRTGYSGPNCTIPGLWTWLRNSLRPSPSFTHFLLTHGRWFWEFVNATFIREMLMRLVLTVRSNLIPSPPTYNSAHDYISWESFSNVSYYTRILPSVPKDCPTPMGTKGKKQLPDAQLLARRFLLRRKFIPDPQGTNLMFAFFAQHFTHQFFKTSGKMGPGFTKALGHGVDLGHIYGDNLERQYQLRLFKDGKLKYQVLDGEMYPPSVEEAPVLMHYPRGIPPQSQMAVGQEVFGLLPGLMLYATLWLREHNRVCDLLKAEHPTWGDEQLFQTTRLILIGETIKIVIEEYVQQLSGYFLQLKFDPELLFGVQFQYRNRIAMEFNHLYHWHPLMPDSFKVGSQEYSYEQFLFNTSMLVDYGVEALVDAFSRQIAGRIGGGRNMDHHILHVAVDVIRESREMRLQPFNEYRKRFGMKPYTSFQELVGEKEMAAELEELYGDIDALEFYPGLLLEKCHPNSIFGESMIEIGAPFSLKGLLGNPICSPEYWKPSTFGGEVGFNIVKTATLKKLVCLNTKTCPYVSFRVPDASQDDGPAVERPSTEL

[3] = Area under curve plasma concentration of compound in rat when administered perorally at 10 mg/kg dose; type: ADME, organism-based; design: dose 10 mg/kg, route oral; details: in vivo, po
[4] = Plasma half life of compound was determined in rat; type: ADME
[5] = target: T1, Prostaglandin G/H synthase 2; assay: Inhibitory concentration against human whole blood Prostaglandin G/H synthase 2 enzyme activity was determined
[6] = In vitro inhibitory concentration against Prostaglandin G/H synthase 1 enzyme activity
[7] = In vitro inhibitory concentration against Prostaglandin G/H synthase 1
[8] = target: T2, Prostaglandin G/H synthase 1; assay: Inhibitory concentration against human whole blood Prostaglandin G/H synthase 1

| IC50 [1] | IC50 [2] | AUC [3] | half-life [4] | IC50 [5] | IC50 [6] | SMILES | IC50 [7] | IC50 [8] |
| --- | --- | --- | --- | --- | --- | --- | --- | --- |
| 940 nM | > 60 µM | 316 µM·h | 378 min | 1270 nM |  | CS(=O)(=O)c1ccc2c(Sc3ccc(F)cc3F)c(C#N)[nH]c2c1 |  |  |
| 80 nM | 63.9 µM |  |  | 11300 nM | > 40 µM | Cc1[nH]c2cc(S(C)(=O)=O)ccc2c1Cc1ccc(F)cc1 |  |  |
| 380 nM | 17.2 µM |  |  | 380 nM |  | COC(=O)c1[nH]c2cc(S(C)(=O)=O)ccc2c1Sc1ccc(F)cc1F |  |  |
| > 40000 nM |  |  |  |  |  | Cc1[nH]c2cc(S(C)(=O)=O)ccc2c1S(=O)(=O)c1ccc(F)cc1 |  |  |
| 130 nM | > 67 µM | 56 µM·h |  | 570 nM |  | CS(=O)(=O)c1ccc2c(Sc3ccccc3Cl)c(C#N)[nH]c2c1 |  |  |
| > 40000 nM |  |  |  |  |  | CS(=O)(=O)c1ccc2c(Sc3ccc(F)cc3)c(C(=O)O)[nH]c2c1 |  |  |
| > 40000 nM |  |  |  |  |  | CNC(=O)c1[nH]c2cc(S(C)(=O)=O)ccc2c1Sc1ccc(F)cc1F |  |  |
| 260 nM | 71.1 µM |  |  | 5600 nM | > 40 µM | Cc1[nH]c2cc(S(C)(=O)=O)ccc2c1Cc1ccc(Cl)cc1 |  |  |
| 330 nM | 8.1 µM |  |  | 1090 nM |  | COc1ccc(Sc2c(C#N)[nH]c3cc(S(C)(=O)=O)ccc23)c(Cl)c1 |  |  |
| 260 nM | 98 µM | 72 µM·h | 246 min | 8400 nM | > 40 µM | Cc1[nH]c2cc(S(C)(=O)=O)ccc2c1Cc1ccc(F)cc1F |  |  |
|  | 18.2 µM | 118 µM·h |  | 770 nM |  | Cc1[nH]c2cc(S(C)(=O)=O)ccc2c1Sc1ccc(F)cc1F |  |  |
| 1210 nM | > 40 µM |  |  | > 40000 nM |  | CS(=O)(=O)c1ccc2c(Sc3ccc(F)cc3)c(C(N)=O)[nH]c2c1 |  |  |
| 200 nM | 6 µM |  |  | 1600 nM | > 30 µM | COc1ccc(Oc2c(C)[nH]c3cc(S(C)(=O)=O)ccc23)cc1 |  |  |
| 800 nM | 9.3 µM |  |  | 1100 nM |  | COC(=O)c1[nH]c2cc(S(C)(=O)=O)ccc2c1Sc1ccc(F)cc1 |  |  |
| 470 nM | 18 µM |  |  | 4800 nM | 9 µM | COc1ccc(Sc2c(C)[nH]c3cc(S(C)(=O)=O)ccc23)cc1 |  |  |
|  | > 125 µM |  |  | 2300 nM |  | CS(=O)(=O)c1ccc2c(Sc3ccc(F)cc3)c(C#N)[nH]c2c1 |  |  |
|  | 3.5 µM |  |  | 2600 nM | > 40 µM | COc1ccc(C(=O)c2c(C)[nH]c3cc(S(C)(=O)=O)ccc23)cc1 |  |  |
| 270 nM | 7.3 µM |  |  | 5100 nM | > 45 µM | COc1ccc(Cc2c(C)[nH]c3cc(S(C)(=O)=O)ccc23)cc1 |  |  |
| 1780 nM | 30 µM |  |  | 5200 nM |  | Cc1[nH]c2cc(S(C)(=O)=O)ccc2c1Sc1ccccn1 |  |  |
| 110 nM | 33 µM |  |  | 4100 nM | 25.8 µM | Cc1[nH]c2cc(S(C)(=O)=O)ccc2c1Oc1ccc(Cl)cc1Cl |  |  |
| 200 nM | 6 µM |  |  | 1600 nM | > 30 µM | COc1ccc(Oc2c(C)[nH]c3cccc(S(C)(=O)=O)c23)cc1 |  |  |
| > 40000 nM |  |  |  |  |  | CS(=O)(=O)Cc1[nH]c2cc(S(C)(=O)=O)ccc2c1Sc1ccccc1Cl |  |  |
| > 40000 nM |  |  |  |  |  | Cc1[nH]c2cc(S(C)(=O)=O)ccc2c1[S+]([O-])c1ccc(F)cc1 (centres undefined) |  |  |
| 110 nM | 33 µM |  |  | 4100 nM | 39.5 µM | Cc1[nH]c2cc(S(C)(=O)=O)ccc2c1Oc1ccc(F)cc1F |  |  |
| 420 nM | > 100 µM |  |  | 5900 nM |  | CS(=O)(=O)c1ccc2c(Sc3ccc(F)cc3)c(CO)[nH]c2c1 |  |  |
| 300 nM | 12 µM |  |  | 3800 nM | 30 µM | Cc1[nH]c2cc(S(C)(=O)=O)ccc2c1Oc1ccc(Cl)cc1 |  |  |
| > 40000 nM |  |  |  |  |  | CC(=O)OCc1[nH]c2cc(S(C)(=O)=O)ccc2c1Sc1ccccc1Cl |  |  |
| 2240 nM | > 40 µM |  |  | > 40000 nM |  | CS(=O)(=O)c1ccc2c(Sc3ccc(F)cc3F)c(C(N)=O)[nH]c2c1 |  |  |

| SMILES | IC50 [1] | IC50 [2] | AUC [3] | half-life [4] | IC50 [5] | IC50 [6] | IC50 [7] | IC50 [8] |
| --- | --- | --- | --- | --- | --- | --- | --- | --- |
| Cc1[nH]c2cc(S(C)(=O)=O)ccc2c1Sc1ccc(F)cc1 | 20 nM | 55.7 µM |  |  | 2200 nM | > 40 µM |  |  |
| Cc1[nH]c2cc(S(C)(=O)=O)ccc2c1Cc1ccccc1Cl | 70 nM | 118 µM |  |  | 5500 nM |  | > 40 µM |  |
| Cc1[nH]c2cc(S(C)(=O)=O)ccc2c1C(=O)c1ccc(F)cc1 | 660 nM | 2.44 µM |  |  | 1720 nM | 100 µM |  |  |
| Cc1[nH]c2cc(S(C)(=O)=O)ccc2c1Oc1ccc(F)cc1 | 30 nM |  | 35 µM·h | 372 min | 2000 nM | > 40 µM |  | 37 µM |
